Results on 5 molecules are retold here after patent publication US5863948A, “Increasing aqueous humor outflow” (priority 1994, dated 1999).

Where a name gives a salt, the structure may show the parent alone. Read-outs that look alike come from different tables or passages of the source.

For data set [1], the system named is calf eye outflow facility. Conditions: perfusion at 15 mm Hg and 22° C.; cited from earlier work.
Data set [2] deals with monkey eye outflow. Conditions: perfusion at 15 mm Hg and 22° C.; cited from earlier work.
Data set [3] concerns cornea. Nature of the data set: Topical application, corneal edema in the monkey (flashlight and slit lamp examination). Format: in vivo. The method, then: (§1) Experiments similar to those described above have also been performed using two esters of ethacrynic acid, RCOOCH2 CH2 N(CH2 CH3)2 (hereinafter "ester A") and RCOOCH2 CH2 CH2 N(CH2 CH3)2 (hereinafter "ester B"), where R is [2,3-dichloro-4-(2-methylene-1-oxobutyl)phenoxy]acetate.
(§2) In the monkey, a significant pressure reduction 24 hours after application of 10 mM ester A was observed (control eyes changing from 17±3 to 21±2 mm Hg versus experimental eyes changing from 19±1 to 5±3 mm Hg; n=6). […] This was detected by flashlight examination and confirmed by slit lamp examination.

In data set [4] the test system is eye. The data set is described as follows: Topical instillation, ocular side effects / irritation in rabbits. Format: in vivo, Dutch-belted rabbits. The method, then:
(§3) For rabbit experiments Dutch-belted rabbits of either sex weighing 1.5 to 2 kg were used for topical studies. Each animal was randomly assigned one eye for the experimental and the other for its control solution. Intraocular pressure was measured using a Digilab Pneumotonometer. Any animals showing asymmetry of intraocular pressure greater than 2 mm were excluded form the study.
(§4) The protocol was as follows. Baseline intraocular pressure was taken in each eye using 0.5% proparacaine hydrochloride for topical anesthesia. […] In a half hour this was repeated. Two hours later intraocular pressure was measured in each eye. In some animals intraocular pressure was also measured five hours later and all animals had measurement of intraocular pressure the following day.
(§5) Ethacrynic acid powder was dissolved in 3% methylcellulose to yield the desired concentration. […] The solution was refrigerated over night to yield a transparent, viscous fluid. The pH of the solution was determined by mixing one part of the control or experimental solution with five parts of distilled water. […] The 3% methylcellulose solution was refrigerated when not in use.
as §1
(§6) In all these topical experiments 2 drops of the agent were given 5 minutes apart and control eyes were fully sham manipulated. […] However, not all the animals were slit lamped.

In data set [5] the test system is intraocular pressure. Nature of the data set: Topical instillation, intraocular pressure in rabbits. The data set is classed as in vivo, Dutch-belted rabbits. Here is the method: as §3, §4, §5, §1, §6
The test system of data set [6] is intraocular pressure. The data set is described as follows: Topical application, intraocular pressure in the monkey. The data set is classed as in vivo. Here is the method:
as §1
After topical application of 10 mM ester A, a reduction in intraocular pressure in the rabbit was observed. This was most apparent 24 hours after instillation ([…] intraocular pressure changing from 22±3 to 15±2 mm Hg; n=8). In all these topical experiments 2 drops of the agent were given 5 minutes apart and control eyes were fully sham manipulated. […] However, not all the animals were slit lamped.
as §2

The nature of data set [7]: Solution stability. Format: physicochemical. Here is the method:
(§7) Each vial of ethacrynic acid contained ethacrynate sodium powder equivalent to 50 mg of ethacrynic acid. […] The powder was diluted with the above basic medium (Dulbecco's with added glucose) to yield the desired concentration. The solution was mixed at room temperature until dissolved, and the pH was determined (always 7.2) before use; the solution was filtered with a 0.2 micron filter (Nuclepore); this produced a solution which was stable for 24 hours.
Ethacrynic acid powder was dissolved in 3% methylcellulose to yield the desired concentration. The solution was mixed at room temperature for one hour and was stable for 24 hours. A similar osmotically balanced control solution was prepared from methyl cellulose powder dissolved in distilled water using low heat for several hours. The solution was refrigerated over night to yield a transparent, viscous fluid. The pH of the solution was determined by mixing one part of the control or experimental solution with five parts of distilled water. The pH ranged between 6.2 and 6.5 for both the control and experimental solutions. The 3% methylcellulose solution was refrigerated when not in use.

Data set [8] has as its system aqueous humor outflow (trabecular meshwork). The data set is described as follows: Two-step constant pressure perfusion of anterior chamber; aqueous humor outflow facility in cynomolgus monkeys in vivo. Also on record: species or system cynomologous monkeys.
Text: (§8) Ethacrynic acid (sodium salt) was used to increase aqueous humor outflow in cynomologous monkeys, as described below. Ethacrynic acid can be purchased from Merck, Sharp, and Dome, and is described in U.S. Pat. No. 3,255,241, hereby incorporated by reference. Ethacrynic acid has the chemical formula [2,3-dichloro-4-(2-methylene-1-oxobutyl) phenoxy] acetic acid. Any suitable analog described in U.S. Pat. No. 3,255,241 or its ester or amide derivative can also be used as described herein; for example, the following compounds may be used and are available from Allergan, Inc. (Irvine, Calif.), as indicated by the code number below the structure. [drawing 4]
(§9) Each animal was randomly assigned one eye for the experimental and the other for its control perfusion. The animals were fasted the night before the experiment. They were anesthetized intramuscularly with Methohexital Sodium 15 mg/kg and Pentobarbital Sodium 35 mg/kg. Supplemental anesthesia as required was carried out with Pentobarbital 10 mg/kg/hour. Needles were placed through the cornea into the anterior chamber and a two-step constant pressure perfusion method was performed in order to determine aqueous humor outflow facility. The basic medium for perfusion was Dulbecco's phosphate buffered saline with added 5.5 mM glucose. A 10 microliter bolus of the experimental or control solution (that would produce the desired final concentration in the anterior chamber) was injected through a T shaped connector piece in the infusion line.
as §7
The control solution was composed of 9.5 mg sodium chloride (to osmotically balance the experimental solution), 62.5 mg mannitol and 0.1 milliliter thimerosol dissolved in Dulbecco's phosphate buffered saline with 5.5 mM added glucose to yield the desired concentration.
(§10) During perfusion experiments, a 10 microliter bolus injection was made using a Hamilton syringe. Since the monkey anterior chamber is approximately 200 microliters, 10 microliters of 10 mM ethacrynic acid was infused to achieve a final concentration of 0.5 mM ethacrynic acid.
[…] There were at least three animals and separate experiments carried out for each of the concentrations 0.1 MM, 0.25 mM, and 0.5 mM.

Data set [9] concerns eye. Nature of the data set: Ocular changes and intraocular pressure after perfusion in monkeys. Format: in vivo, cynomologous monkeys.
Text: as §8, §9, §7, §10
Experiments were carried out using final ethacrynic acid concentrations in the aqueous humor of 0.1 mM to 0.5 mM. There were at least three animals and separate experiments carried out for each of the concentrations 0.1 MM, 0.25 mM, and 0.5 mM.

A short description of data set [10]: Water solubility. The data set is classed as physicochemical.

As for `CCN1C(=O)C=CC1=O` [NEM, N-ethylmaleimide], the “dosage producing a significant increase in the facility of outflow” value in [1] is reported as not below 4.7 mM. Also, the “outflow in the monkey eye” value in [2] is on record as “increase in outflow”.

With `C=C(CC)C(=O)c1ccc(OCC(=O)OCCN(CC)CC)c(Cl)c1Cl` [ester A, RCOOCH2 CH2 N(CH2 CH3)2], in [3] (5 mM ester A), the corneal edema result is recorded as “corneal edema was likewise apparent”. Also, the corneal edema result in [3] (10 mM ester A) is “significant corneal edema was also observed in over half of the monkeys”. Moreover, the “resolution of corneal edema” value in data set [3] (ester A topical, all animals) was “corneal edema ultimately resolved in all animals”. Also, the irritation result in data set [4] (5 mM ester A, two rabbits) was “minimal if any irritation”. For the same molecule, in data set [4] (10 mM ester A), the anterior chamber inflammation entry is “No anterior chamber inflammation was observed”; the “clearing of external irritation of the lid” value turned out to be 24 h; the “irritation of eyelid, conjunctiva, nictitating membrane” value is “Most of the animals demonstrated some irritation of the eyelid and a few to the conjunctiva and nictitating membrane”. Moreover, the corneal changes entry in data set [4] (10 mM ester A, not all animals slit lamped) is recorded as “no corneal changes were observed”. The molecule further showed an intraocular pressure in data set [5] (10 mM ester A, 24 hours after instillation, from 22±3, n=8, printed as control eye) of 15±2 mm Hg. For the same molecule, the pressure reduction result in [6] (5 mM ester A) is recorded as “no pressure reduction was documented”. Besides, in data set [6] (10 mM ester A, 24 hours, from 19±1, control eyes 17±3 to 21±2, n=6), the “intraocular pressure, experimental eyes” value turned out to be 5±3 mm Hg.

On to `C=C(CC)C(=O)c1ccc(OCC(=O)OCCCN(CC)CC)c(Cl)c1Cl` [ester B, RCOOCH2 CH2 CH2 N(CH2 CH3)2], for which, in [4] (10 mM ester B, at 24 hours), the signs of irritation result is “only minimal if any signs of irritation” and the “slit lamp observation of ocular inflammation” value was “no slit lamp observations of ocular inflammation”. The “intraocular pressure, experimental eyes” value in data set [5] (10 mM ester B, 24 hours, from 23±3, control eyes 24±2 to 24±2, n=5) is 15±3 mm Hg.

On to `C=C(CC)C(=O)c1ccc(OCC(=O)O)c(Cl)c1Cl` [ethacrynic acid, [2,3-dichloro-4-(2-methylene-1-oxobutyl)phenoxy] acetic acid], for which the stability of solution in [7] worked out at 24 h. Further, in [4] (5 mM topical), the conjunctival side effect entry was “slight conjunctival infection”. Further, the other side effects entry in data set [4] (5 mM topical) was “no other side effects noted”. Besides, in data set [4] (10 mM topical), the “conjunctival side effect and irritation” value is “moderate conjunctival infection and signs of irritation”. In addition, the “resolution of corneal toxicity and inflammation” value in data set [4] (higher concentrations (above 10 mM)) is given as “resolved without apparent sequelae”. In data set [4] (higher concentrations (above 10 mM), for several days), the “corneal toxicity and anterior chamber inflammation” value is “signs of corneal toxicity (corneal edema) and anterior chamber inflammation were apparent for several days”. Moreover, the “intraocular pressure, treated eye” value is 19.6 mm Hg in data set [5] (5 mM in 3% methylcellulose, 2 hours, from 22.4 baseline, control eye 21.5 to 23.1, n=8, p less than 0.01); 22.4 mm in data set [5] (5 mM in 3% methylcellulose, next day, control eye 22.7); 20.0 mm Hg in [5] (10 mM and 3% methylcellulose, 24 hours, from 23.0 baseline, control eye 22.9 to 24.2, n=14, p less than 0.001). Moreover, the “response in outflow facility” value in data set [8] (0.25 mM) is recorded as “approximately half the animals perfused responded with a substantial increase in outflow facility”. Further, the “mean increase in fluid outflow facility” value in [8] (0.5 mM final concentration in anterior chamber, control perfused eye no change) is given as 140%. Moreover, in [8] (1.0 mM, one animal, 18% increase in control eye), the “increase in outflow facility” value amounted to 355%. The “effect on outflow facility” value in data set [8] (lower dosages (below 0.25 mM)) is on record as “no effect”. Further, the “intraocular pressure after perfusion” value in data set [9] (a few days after the perfusion experiments) is “symmetrical and normal in both eyes”. Moreover, the dilated pupil entry in data set [9] (dosages above 0.25 mM, treated eye) was “some of the animals developed a dilated pupil”. Besides, in data set [9] (perfusion), the “chronic corneal edema, opacities or cataract formation” value is reported as “no chronic corneal edema or opacities or cataract formation”. Moreover, the “corneal or crystalline lens changes” value in data set [9] (perfusion) is “no apparent corneal or crystalline lens changes”.

As to `C=C(CC)C(=O)c1ccc(OCC(=O)O)c(Cl)c1Cl` [sodium salt of ethacrynic acid], the stability of solution in [7] (Dulbecco's phosphate buffered saline with 5.5 mM glucose, pH 7.2) was found to be 24 h. In data set [10], the solubility was approximately 40 mM.

A word on the solubility: it is the dissolved amount per volume that the medium holds.
